Data reported in US20030044413A1, “Methods of limiting apoptosis of cells” (Regents of the University of Minnesota, priority 1998, published 2003).

Key:
HuH-7 cells [1] = assay: DCA-induced apoptosis, Hoechst staining, HuH-7 cells; assay type: cell-based; details: for percent of apoptotic cells: 6 h
Text: Cell culture and preparation of rat primary hepatocytes. Rat primary hepatocytes were isolated from male Sprague-Dawley rats (200-250 g) by collagenase perfusion as described previously (Mariash et al., J. Biol. Chem, 261, 9583-9586 (1986)). Briefly, rats were aneshtesized with phenobarbitol and the livers were perfused with 0.05% collagenase. Hepatocyte suspensions were obained by passing digested livers through 0.125 mm gauze and washing cells in modified Eagles' medium (MEM, Life Technologies, Inc., Grand Island, N.Y.). […] After isolation, hepatocytes were resuspended in William's E medium (Life Technologies, Inc., Grand Island, N.Y.) supplemented with 26 mM sodium bicarbonate, 23 mM HEPES, 0.01 U/ml insulin, 2 mM L-glutamine, 10 nM dexamethasone, 5.5 mM glucose, 100 U/ml penicillin and 100 U/ml streptomycin and then 1.0×10^6 cells were plated on 35×10 mm […] tissue culture dishes (Becton Dickinson Labware, Lincoln Park, N.J.). The cells were maintained at 37° C. in a humidified atmosphere of 5% CO2 for 3 h. Plates were then washed with medium to remove dead cells, and medium containing 10% heat-inactivated FBS (55° C. for 30 min) was added (Atlanta Biologicals, Inc., Norcross, Ga.). Aliquots of 1.0×10^5 human (HuH-7) hepatoma cells were plated on 35×10 mm tissue culture dishes (Becton Dickinson Labware) and maintained at 37° C. in Dulbecco's MEM (Atlanta Biologicals, Inc.) supplemented with 10% FBS, 100 U/ml penicillin and 100 u/ml streptomycin for 3 h prior to incubation with bile acids.
Incubation of cells with bile acids. Freshly isolated rat hepatocytes were cultured for 3 h as described above and then incubated with William's E medium supplemented with either 50 μM DCA, 50 μM UDCA (Sigma Chemical Co., St. Louis, Mo.), their combination, or no bile acid (control), for 2 h, 4 h, and 6 h. HuH-7 cells cultured for 3 h as described above were incubated with Dulbecco's MEM medium supplemented with either 50 μM, 100 μM, 500 μM, or 1000 μM DCA, UDCA, DCA+UDCA, or no addition (control) for 6 h and 24 h. The medium was gently removed at the indicated time points and scored for nonviable cells by trypan blue dye exclusion. The attached cells were fixed for morphologic assessment of apoptotic changes.
Morphological evaluation of apoptosis. Morphology was performed as described previously (Oberhammer et al., Proc. Natl. Acad. Sci. USA 89, 5408-5412 (1992)). Briefly, after fixation (with 4% formaldehyde in PBS, pH 7.4, for 10 min at room temperature), the cells were incubated with Hoechst dye 33258 (Sigma Chemical Co.) at 5 μg/ml in PBS for 5 min, washed with PBS and mounted with PBS:glycerol (3:1, v/v). Fluorescence was visualized with a Zeiss standard fluorescence microscope (Carl Zeiss, Inc., Thornwood, N.Y.). Photographs were taken with Kodak Ektar-1000 film (Eastman Kodak Co.). Stained nuclei were scored by blind analysis and categorized according to the condensation and staining characteristics of chromatin. Normal nuclei were identified as noncondensed chromatin dispersed over the entire nucleus. Apoptotic nuclei were identified by condensed chromatin, contiguous to the nuclear membrane, as well as nuclear fragmentation of condensed chromatin. Three fields per dish of approximately 500 nuclei were counted; mean values are expressed as the percent of apoptotic nuclei.

[2] = Bile acid quantification by gas chromatography in primary rat hepatocytes; assay type: in vitro ADME; details: 6 h
Procedure: In parallel experiments, isolated rat hepatocytes (2×10^7 cells) and HuH-7 cells (2×10^6 cells) were incubated with 50 μM or 100 μM, respectively, of DCA, UDCA or DCA+UDCA for 6 h. Cells were washed 3 times with PBS, pH 7.4, harvested, centrifuged at 800×g for 5 min in a JS-4.0 Beckman rotor (Beckman Instruments, Inc., Schaumburg, Ill.) at 4° C., washed again, and the final pellet was flash-frozen in liquid nitrogen. Cells were then analyzed for intracellular bile acid concentrations by gas chromatography.
Bile acid quantification by gas chromatography. […] Quantification of bile acids was achieved using gas chromatography, by comparing the peak height response of the individual bile acids with the peak height response obtained from the internal standard, nordeoxycholic acid, which was added to each sample prior to bile acid extraction.

hepatocytes = assay: TUNEL assay in liver of rats fed bile acids; assay type: in vivo, rat; details: 10 days
Text: Animals and diets. Male 160-175 gram (g) Sprague-Dawley rats (Sprague-Dawley, Indianapolis, Ind.) were maintained on a 12-hour (h) light-dark cycle and fed standard laboratory chow ad libitum for 3 days. […] On day 10, the animals were sacrificed by exsanguination under ether anesthesia between 9 a.m. and 11 a.m. The livers were removed, rinsed in normal saline, and flash-frozen in liquid nitrogen. Liver tissue samples were embedded in OCT, and 5 μm-thick cryostat sections were cut and mounted on slides. […] All animals received human care in compliance with the Guide for the Care and use of Laboratory Animals, prepared by the National Academy of Sciences (NIH Publication No. 86-23, revised 1985). Terminal transferase-mediated dUTP-digoxigenin nick end labeling (TUNEL) assay. Digoxigenin-nucleotide residues were added to 3′-OH ends of double or single-stranded DNA by terminal deoxynucleotidyl transferase. Reactions were performed according to the manufacturer's recommendations (Oncor, Inc., Gaithersburg, Md.), and the specimens were then coversliped with Permount medium (Fischer Scientific, Inc., Itasca, Ill.) prior to analysis by phase-contrast microscopy using a Nikon microscope (Nikon, Inc., Melville, N.Y.). Photographs were taken using Kodak Ektar-1000 film (Eastman Kodak Co., Rochester, N.Y.).

HuH-7 cells [3] = assay: Annexin V-biotin assay (phosphatidylserine externalization); assay type: cell-based, human; details: 100 μM, 6 h
Procedure: Annexin V-Biotin assay. The annexin V-biotin apoptosis assay was performed on HuH-7 cells according to the manufacturer's recommendations (R & D Systems). […] The chromogenic signal generated from the binding of annexin V to exposed phosphatidylserine moieties was read at 450 nm using a microplate reader (Molecular Devices, Co., Menlo Park, Calif.).

Cos-7 cells = assay: Okadaic acid-induced apoptosis, Cos-7 cells; assay type: cell-based, monkey
Procedure: HuH-7 cells were treated with 1 nM TGF-β1, 100 μM of either hyodeoxycholic acid, taurocholic acid, tauroursodeoxycholic acid (Sigma Chemical Co.) or glycoursodeoxycholic acid (Steraloids Inc., Wilton, N.H.), or a combination of TGF-β1 plus the individual bile acids for 72 h. HeLa and Cos-7 cells were incubated with 50 nM okadaic acid, 100 μM of either tauroursodeoxycholic acid or glycoursodeoxycholic acid, or a combination of okadaic acid plus the individual bile acids for 24 h. In the combination groups, cells were pretreated with the bile acid alone for 60 min prior to incuation with TGF-β1 or okadaic acid. In all studies, the medium was gently removed at the indicated times and scored for nonviable cells. The attached cells were fixed for morphologic evaluation of apoptosis.
Morphological evaluation of apoptosis. Morphology was performed as described previously (Oberhammer et al., Proc. Natl. Acad. Sci. USA 89, 5408-5412 (1992)). […] Fluorescence was visualized with a Zeiss standard fluorescence microscope (Carl Zeiss, Inc., Thornwood, N.Y.). […] Stained nuclei were scored by blind analysis and categorized according to the condensation and staining characteristics of chromatin. […] Three fields per dish of approximately 500 nuclei were counted; mean values are expressed as the percent of apoptotic nuclei.

[4] = incubated with 50 μM DCA and UDCA combined
[5] = incubated with 50 μM of the individual bile acid
[6] = rats fed chow with 0.4% bile acid

SMILES: C[C@H](CCC(=O)O)[C@H]1CC[C@H]2[C@@H]3CC[C@@H]4C[C@H](O)CC[C@]4(C)[C@H]3C[C@H](O)[C@]12C [DCA, deoxycholic acid]
- percent of apoptotic cells (HuH-7 cells [1]; 100 μM DCA): 16.8%
- apoptotic cells (HuH-7 cells [1]; 100 μM DCA, 24 h): 20±2.8%
- percent of apoptotic cells (HuH-7 cells [1]; 1000 μM DCA): 66.7%
- necrosis (HuH-7 cells [1]; elevated bile acid concentrations (up to 1000 μM DCA)): no apparent necrosis
- intracellular concentration of the bile acid [2, 4]: 380.3±32.0 nmol/10^8 cells
- intracellular concentration of the bile acid [2, 5]: 49.5±9.9 nmol/10^8 cells
- change in TUNEL-positive cells (hepatocytes; FIG. 1 legend, 0.4% in chow): significant increase
- increase in TUNEL-positive liver cells from control values (hepatocytes; [6]): ~40 fold
- liver cells with positive nuclear staining for fragmented DNA (TUNEL) (hepatocytes; [6]): 11%
- optical density at 450 nm (annexin V binding) relative to controls (HuH-7 cells [3]): 0.27±0.06

SMILES: C[C@H](CCC(=O)O)[C@H]1CC[C@H]2[C@@H]3[C@@H](O)C[C@@H]4C[C@H](O)CC[C@]4(C)[C@H]3CC[C@]12C [UDCA, ursodeoxycholic acid]
- apoptotic cells (HuH-7 cells [1]; 100 μM DCA + UDCA combination, 24 h): 11.5±2.1%
- increase in cell viability by coincubation with UDCA (HuH-7 cells [1]; DCA + UDCA, 24 h): 44±7.1%
- intracellular concentration of the bile acid [2, 4]: 263.8±39.3 nmol/10^8 cells
- intracellular concentration of the bile acid [2, 5]: 306.0±135.1 nmol/10^8 cells
- percent apoptosis (Cos-7 cells; okadaic acid + UDCA): 7.3±2.4%
- increase in TUNEL-positive liver cells from control values (hepatocytes; [6]): 2 fold
- optical density at 450 nm (annexin V binding) relative to controls (HuH-7 cells [3]): 0.08±0.02

SMILES: C=C1[C@@H](O)[C@@H]2O[C@]3(CC[C@H](/C=C/[C@@H](C)[C@@H]4CC(C)=C[C@@]5(O[C@H](C[C@@](C)(O)C(=O)O)CC[C@H]5O)O4)O3)CC[C@H]2O[C@@H]1[C@@H](O)C[C@H](C)[C@H]1O[C@@]2(CCCCO2)CC[C@H]1C [okadaic acid]
- percent apoptosis (Cos-7 cells; okadaic acid alone): 21.4±2.9%
